Where a name gives a salt, the structure may show the parent alone. Read-outs that look alike come from different tables or passages of the source.
Experiments:
[1] = set-up: method as in PMID 19884365; details: once-daily multiple dosing; cited from earlier work
[2] = Plasma pharmacokinetics in phase 1, open-label, fixed-sequence, 2-period drug interaction trial (MK-8591-005); type: in vivo, human; details: for C24, GMR (90%CI): Islatravir + Dolutegravir + TDF / Dolutegravir + TDF; for half-life / concentration at 24 h / AUC / Cmax / Tmax: human, oral; for half-life / concentration at 24 h / Cmax, GM (95%CI) / tmax, median (min‐max) / Apparent terminal t1/2, geometric mean (geometric CV %) / AUC / Cmax / Tmax: plasma, N = 12; for Tmax: read-out: tmax, median (min‐max)
Method: (§1) This was a phase 1, open‐label, fixed‐sequence, 2‐period trial in adults without HIV (protocol MK‐8591‐005). In period 1, participants received a single oral dose of 20 mg islatravir. In period 2, participants received multiple oral doses of 50 mg dolutegravir and 300 mg TDF once daily for 11 consecutive days (days 1‐11), with a single oral dose of 20 mg islatravir coadministered on day 8. There was a washout period of ≥7 days between islatravir dosing in period 1 and the first dose of dolutegravir and TDF in period 2 (Figure 1).
Blood samples for islatravir plasma analysis were collected before dosing and at selected time points over 96 hours following administration of islatravir on day 1 of period 1 and day 8 of period 2. In period 2, samples taken at 24, 48, and 72 hours for islatravir plasma analysis were collected before dose administration of dolutegravir and TDF. Blood samples for plasma analysis of dolutegravir and tenofovir were collected before dosing on days 1, 7, and 8 of period 2 and at selected time points over 24 hours after dosing on days 7 and 8 of period 2. The 24 hour samples for dolutegravir and tenofovir analysis for days 7 and 8 were collected before dosing of dolutegravir and TDF.
Plasma concentrations of islatravir, dolutegravir, and tenofovir were determined by inVentiv Health Clinique (Québec City, Québec, Canada) using validated high‐performance liquid chromatography coupled to tandem mass spectrometry methods.
Islatravir (m/z 294.000/154.000) was extracted using an automated protein precipitation method using [^13C,^15N3]‐ISL as internal standard (m/z 297.800/158.000). The extracted samples were assessed on a system equipped with a X Select HSS T3 C18, 50×2.1 mm, 2.5 μm column with water/acetonitrile with formic acid mobile phase. […] The lower limit of quantitation for islatravir was 0.10 ng/mL, with an analytical range of 0.10 to 100.00 ng/mL.
Dolutegravir (m/z 420.200/277.200) was extracted using an automated protein precipitation method using [C^13‐d5]‐dolutegravir as the internal standard (m/z 426.300/277.300). The extracted samples were assessed on a system equipped with an ACE 3 C18, 30 × 4.6 mm, 3 μm column (Avantor, Radnor, Pennsylvania) with water/methanol with ammonium formate and formic acid mobile phase. […] The lower limit of quantitation for dolutegravir was 10.00 ng/mL, with an analytical range of 10.00 to 10 000.00 ng/mL.
Tenofovir (m/z 288.200/176.200) was extracted using an automated solid phase extraction using tenofovir‐d6 as internal standard (m/z 294.100/182.300). The extracted samples were assessed on a system equipped with an Atlantis dC18, 75 × 4.6 mm, 3 μm column (Waters Corp., Milford, Massachusetts) with water/acetonitrile with ammonium formate and formic acid mobile phase. […] The lower limit of quantitation for tenofovir was 0.50 ng/mL, with an analytical range of 0.50 to 500.00 ng/mL.
Plasma islatravir, dolutegravir, and tenofovir pharmacokinetics were summarized descriptively. Pharmacokinetic parameter values were calculated using the software Phoenix WinNonlin version 6.3 (Certara, Princeton, New Jersey). Cmax, C24, and tmax values were obtained directly from the observed plasma concentration–time data.

[3] = Safety and tolerability in the phase 1 trial (adverse event reports, laboratory tests, ECG, vital signs); type: in vivo, human; details: after administration of dolutegravir and TDF; of 12 participants
Method: as §1
Safety and tolerability were monitored by repeated clinical and laboratory evaluations for the duration of the trial. Safety evaluations included adverse event (AE) reports, laboratory tests, 12‐lead electrocardiograms, and vital signs.
Incidence of adverse experiences was descriptively summarized.

[4] = in vivo; cited from earlier work
[5] = steady state, 50 mg dolutegravir + 300 mg TDF once daily days 1-7, period 2, without islatravir, read-out: Apparent terminal t1/2, geometric mean (geometric CV %) (converted)
[6] = steady state, 50 mg dolutegravir + 300 mg TDF once daily days 1-7, period 2, without islatravir, read-out: Apparent terminal t1/2, AM (SD) (converted)
[7] = steady state, 50 mg dolutegravir + 300 mg TDF once daily days 1-7, period 2, without islatravir, read-out: C24, AM (SD)
[8] = steady state, 50 mg dolutegravir + 300 mg TDF once daily days 1-7, period 2, without islatravir, read-out: C24, GM (95%CI)
[9] = 50 mg dolutegravir + 300 mg TDF once daily with single 20 mg islatravir on day 8, period 2, read-out: C24, AM (SD)
[10] = 50 mg dolutegravir + 300 mg TDF once daily with single 20 mg islatravir on day 8, period 2, read-out: C24, GM (95%CI)
[11] = steady state, 50 mg dolutegravir + 300 mg TDF once daily days 1-7, period 2, without islatravir
[12] = 50 mg dolutegravir + 300 mg TDF once daily with single 20 mg islatravir on day 8, period 2

Row | C24, GMR (90%CI) [2] | half-life [2, 5] | half-life [2, 6] | concentration at 24 h [2, 7] | concentration at 24 h [2, 8] | concentration at 24 h [2, 9] | concentration at 24 h [2, 10] | Apparent terminal t1/2, geometric mean (geometric CV %) [2, 12] | Structure (SMILES) | participants reporting AEs considered drug-related [3] | other results
1 | 1.10 (1.03‐1.17) | 15.2 h | 15.3 h | 1220 ng/mL | 1120 ng/mL | 1310 ng/mL | 1240 ng/mL | 15.5 (16.2) h | C[C@@H]1CCO[C@H]2Cn3cc(C(=O)NCc4ccc(F)cc4F)c(=O)c(O)c3C(=O)N12 [Dolutegravir] | 3 participants | time to steady‐state concentrations [1]: ≤ 5 days; half-life ([2]; 50 mg dolutegravir + 300 mg TDF once daily with single 20 mg islatravir on day 8, period 2, read-out: Apparent terminal t1/2, AM (SD) (converted)): 15.7 h; Cmax, GM (95%CI) [2, 11]: 3500 (2770‐4430) ng/mL; tmax, median (min‐max) [2, 11]: 2.50 (0.50‐4.13) h; Cmax, GM (95%CI) [2, 12]: 3570 (2950‐4330) ng/mL; tmax, median (min‐max) [2, 12]: 3.00 (1.00‐6.03) h
2 | – | – | – | – | – | – | – | – | CC(C)OC(=O)OCOP(=O)(CO[C@H](C)Cn1cnc2c(N)ncnc21)OCOC(=O)OC(C)C [TDF, tenofovir disoproxil fumarate] | 3 participants | –
3 | 1.05 (0.97‐1.14) | 13.7 h | 13.8 h | 43.6 ng/mL | 42.6 ng/mL | 45.3 ng/mL | 44.8 ng/mL | 13.2 (11.0) h | C[C@H](Cn1cnc2c(N)ncnc21)OCP(=O)(O)O [Tenofovir] | – | AUC ([2]; steady state, 50 mg dolutegravir + 300 mg TDF once daily days 1-7, period 2, without islatravir, read-out: AUC0‐24, AM (SD)): 2250 ng·h/mL; AUC ([2]; steady state, 50 mg dolutegravir + 300 mg TDF once daily days 1-7, period 2, without islatravir, read-out: AUC0‐24, GM (95%CI)): 2220 ng·h/mL; Cmax ([2]; steady state, 50 mg dolutegravir + 300 mg TDF once daily days 1-7, period 2, without islatravir, read-out: Cmax, AM (SD)): 346 ng/mL; Cmax ([2]; steady state, 50 mg dolutegravir + 300 mg TDF once daily days 1-7, period 2, without islatravir, read-out: Cmax, GM (95%CI)): 339 ng/mL; Tmax [2, 11]: 1 h; AUC ([2]; 50 mg dolutegravir + 300 mg TDF once daily with single 20 mg islatravir on day 8, period 2, read-out: AUC0‐24, AM (SD)): 2350 ng·h/mL; AUC ([2]; 50 mg dolutegravir + 300 mg TDF once daily with single 20 mg islatravir on day 8, period 2, read-out: AUC0‐24, GM (95%CI)): 2330 ng·h/mL; Cmax ([2]; 50 mg dolutegravir + 300 mg TDF once daily with single 20 mg islatravir on day 8, period 2, read-out: Cmax, AM (SD)): 343 ng/mL; Cmax ([2]; 50 mg dolutegravir + 300 mg TDF once daily with single 20 mg islatravir on day 8, period 2, read-out: Cmax, GM (95%CI)): 333 ng/mL; Tmax [2, 12]: 1.01 h; time to steady‐state concentrations [4]: ≤ 7 days

— publication PMC9298070, “Lack of a Clinically Meaningful Drug Interaction Between the HIV‐1 Antiretroviral Agents Islatravir, Dolutegravir, and Tenofovir Disoproxil Fumarate” (Clinical Pharmacology in Drug Development, 2021)
